# Data taken from patent US20150374676A1, “HELICASE-PRIMASE INHIBITORS FOR USE IN A METHOD OF TREATING ALZHEIMER'S DISEASE” (AICURIS GMBH & CO. KG, priority 2013, published 2015).
# Tests used:
# [1] = absolute bioavailability after oral administration; details: in vivo; oral administration of the mono mesylate monohydrate salt in a composition of the invention; human; read-out: absolute bioavailability of the free base
# Text: In yet another aspect of the invention said absolute bioavailability of 70%±30% of the resultant free base form of N-[5-(aminosulfonyl)-4-methyl-1,3-thiazol-2-yl]-N-methyl-2-[4-(2-pyridinyl)-phenyl]acetamide is achieved in a human.
# In the context of the present invention the term “bioavailability” denotes a subcategory of absorption. Bioavailability denotes the fraction of an administered oral dose of the crystalline N-[5-(aminosulfonyl)-4-methyl-1,3-thiazol-2-yl]-N-methyl-2-[4-(2-pyridinyl)-phenyl]acetamide mono methanesulfonic acid monohydrate of the invention that reaches the systemic circulation of a subject as the resultant free base form of N-[5-(aminosulfonyl)-4-methyl-1,3-thiazol-2-yl]-N-methyl-2-[4-(2-pyridinyl)-phenyl]acetamide. By definition, when a medication is administered intravenously, its bioavailability is 100%. However, when a medication is administered via other routes (such as orally), its bioavailability generally decreases (due to incomplete absorption and first-pass metabolism) or may vary from individual to individual. Bioavailability is one of the essential tools in pharmacokinetics, as bioavailability must be considered when calculating dosages for non-intravenous routes of administration.
# HSV-1 [2] = assay: HSV-1 infected Vero cells, immunocytochemistry for HSV-1 proteins, Aβ and P-tau; assay type: cell-based, herpes simplex virus type 1; details: MOI 0.01 pfu/cell, 24 h; for staining for Aβ / staining for P-tau: 0.025-25 μM
# Description: (§1) Vero cells were infected with HSV-1 at 0.01 plaque forming units (pfu) per cell [pfu/cell] for 24 hours and treated with varying concentrations of ACV and/or the exemplary compound according to Formula (I). Subsequently, cells were fixed and examined for HSV-1 proteins (A), Aβ(B) and P-tau (C) by immunocytochemistry. 1=vehicle; 2-5=increasing concentrations of the exemplary compound according to Formula (I) [0.025, 0.25, 2.5, 25 μM]; 6-9=increasing concentrations of acyclovir [0.025, 0.25, 2.5, 25 μM].
# (§2) The inventors have compared the efficacy of the exemplary compound according to Formula (I) with that of ACV in respect to Aβ and P-tau accumulation in HSV-1 infected cells. African green monkey kidney (Vero) cells or human neuroblastoma (SH-SY5Y) cells were infected with HSV-1 at a multiplicity of infection (MOI) of 0.01 plaque forming units (pfu) per cell [pfu/cell] for 24 hours and were treated with the exemplary compound according to Formula (I), or ACV. The antiviral agents were added at the time of infection and remained throughout the infection. Infection led to typical cytopathic effects (clustering of infected cells positive for HSV-1 protein staining (FIGS. 1A and 2 A, panel 1)).
# HSV = assay: murine HSV skin infection model; assay type: in vivo; details: oral doses of 5 mg/kg or higher once daily for four days; data not shown
# Description: To assess the pharmacokinetic/pharmacodynamic profile the effective dose of the specific free base of N-[5-(aminosulfonyl)-4-methyl-1,3-thiazol-2-yl]-N-methyl-2-[4-(2-pyridinyl)phenyl]-acetamide was validated in a murine HSV skin infection model and associated plasma concentrations were determined (data not shown).
# (§3) In healthy male volunteers these plasma concentrations were covered by a single dose of 40 mg as free base equivalent to the crystalline mono mesylate monohydrate salt of N-[5-(aminosulfonyl)-4-methyl-1,3-thiazol-2-yl]-N-methyl-2-[4-(2-pyridinyl)phenyl]-acetamide (see FIG. 4) and at steady state by daily doses of 25 mg as free base equivalent (see FIG. 5) for 21 days.
# HSV-1 [3] = assay: HSV-1 infected SH-SY5Y cells, immunocytochemistry for HSV-1 proteins, Aβ and P-tau; assay type: cell-based, herpes simplex virus type 1; details: MOI 0.01 pfu/cell, 24 h; for staining for Aβ / staining for P-tau: 0.025-25 μM
# Description: as §1, with “SH-SY5Y” for “Vero”, “Aβ (B)” for “Aβ(B)”
# as §2
# [4] = safety and tolerability in single and multiple dose phase I trials; assay type: in vivo, human; details: healthy male volunteers, single dose and daily doses for 21 days
# Description: The results were compared with the effective concentration of the free base of N-[5-(aminosulfonyl)-4-methyl-1,3-thiazol-2-yl]-N-methyl-2-[4-(2-pyridinyl)phenyl]acetamide in cell culture and correlated to exposures reached in healthy male volunteers in single and multiple dose phase I trials (see FIGS. 4-7).
# as §3
# [5] = in vivo; cited from earlier work
# HSV-1 [6] = details: HSV-1-infected cell cultures; cited from earlier work
# [7] = cited from earlier work
# [8] = higher concentrations 0.25, 2.5, 25 μM
bioavailability [1] [%],SMILES,"antibody staining to HSV-1 proteins, Aβ and P-tau (HSV-1 [2])",cluster size of HSV-1 infected cells (HSV-1 protein staining) (HSV-1 [2]; 0.025 μM),staining for Aβ (HSV-1 [2]),staining for P-tau (HSV-1 [2]),cluster size of HSV-1 infected cells (HSV-1 protein staining) (HSV-1 [2]; [8]),suppression of murine HSV skin infection (HSV),"antibody staining to HSV-1 proteins, Aβ and P-tau (HSV-1 [3])",cluster size of HSV-1 infected cells (HSV-1 protein staining) (HSV-1 [3]; 0.025 μM),staining for Aβ (HSV-1 [3]),staining for P-tau (HSV-1 [3]),cluster size of HSV-1 infected cells (HSV-1 protein staining) (HSV-1 [3]; [8]),safety and tolerability [4],oral bioavailability [5],HSV-1 induced accumulation of Aβ and P-tau (HSV-1 [6]),water solubility [7]
70,"Cc1nc(N(C)C(=O)Cc2ccc(-c3ccccn3)cc2)sc1S(N)(=O)=O [N-[5-(aminosulfonyl)-4-methyl-1,3-thiazol-2-yl]-N-methyl-2-[4-(2-pyridinyl)phenyl]acetamid]",total or almost total removal of antibody staining,slightly smaller compared to control,reduced,reduced,clusters disappear and only occasionally infected cells could be detected,completely suppressed,total or almost total removal of antibody staining,slightly smaller compared to control,reduced,reduced,clusters disappear and only occasionally infected cells could be detected,safe and well tolerated up to the highest dose tested,–,–,–
–,"Nc1nc2c(ncn2COCCO)c(=O)[nH]1 [ACV, acyclovir, reference compound]",–,little effect on cluster sizes,still visible at higher concentrations of ACV,still visible at higher concentrations of ACV,reduced their sizes but less so than did the treatment with equimolar exemplary compound according to Formula (I),–,–,little effect on cluster sizes,still visible at higher concentrations of ACV,still visible at higher concentrations of ACV,reduced their sizes but less so than did the treatment with equimolar exemplary compound according to Formula (I),–,15-30%,reduced the virus-induced accumulation of Aβ and P-tau,poorly water-soluble
